Patent publication US6783949B1, “Processes for determining whether a test substance contains lipases or lipase inhibitors” (Aventis Pharma Deutschland GmbH, priority 1999, dated 2004)
Values joined by “and” are separate entries in the source; they are usually repeats but may differ in a detail not shown here. Equal values may be shown once.

Molecular target: T1, HSL (Rattus norvegicus, UniProt P15304)
T1 construct: The partially purified HSL can be stored at −70° C. for 4 to 6 weeks; from tissue; host or cells: rat epididymal fat cells (male Wistar rats)
T1 sequence (P15304 1-768 isoform P15304-2): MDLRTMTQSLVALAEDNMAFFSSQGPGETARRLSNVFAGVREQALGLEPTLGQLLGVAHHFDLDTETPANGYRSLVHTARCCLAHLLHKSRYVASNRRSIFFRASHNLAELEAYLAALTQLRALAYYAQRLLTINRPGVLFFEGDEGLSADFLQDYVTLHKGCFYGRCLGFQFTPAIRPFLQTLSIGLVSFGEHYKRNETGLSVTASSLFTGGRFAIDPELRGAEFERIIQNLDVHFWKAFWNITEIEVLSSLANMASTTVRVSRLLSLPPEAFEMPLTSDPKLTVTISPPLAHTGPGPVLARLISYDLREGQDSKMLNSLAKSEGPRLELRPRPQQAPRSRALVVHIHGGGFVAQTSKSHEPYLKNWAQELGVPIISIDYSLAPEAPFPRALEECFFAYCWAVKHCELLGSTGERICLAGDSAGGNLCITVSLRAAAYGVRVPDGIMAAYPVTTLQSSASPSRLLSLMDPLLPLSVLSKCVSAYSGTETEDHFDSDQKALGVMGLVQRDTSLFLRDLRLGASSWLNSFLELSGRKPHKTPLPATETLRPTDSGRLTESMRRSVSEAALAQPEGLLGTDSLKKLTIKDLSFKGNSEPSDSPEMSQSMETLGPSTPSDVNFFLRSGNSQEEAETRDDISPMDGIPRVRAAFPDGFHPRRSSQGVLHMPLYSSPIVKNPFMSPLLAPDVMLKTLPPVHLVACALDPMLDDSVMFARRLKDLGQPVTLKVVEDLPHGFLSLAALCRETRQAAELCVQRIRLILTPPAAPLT
Assay: Indirect NAG assay (extinction increase at 481 nm)
Assay type: biochemical
Experimental: A typical reaction is carried out at 30° C. for 60 min, for example in 1.5 ml Eppendorf vessels or 96-hole plates. […] 180 μl of the substrate solution (20 μg/ml of phosphatidylcholine, 10 μg/ml of phosphatidylinositol, 50 μg/ml of NAG in assay buffer) are added. After a preincubation for 15 min at 30° C., 20 μl of HSL in assay buffer are pipetted in and the extinction is immediately measured (see above) at 481 nm in a cuvette photometer (0.5 ml cuvette) or microtiter plate reader. After a certain incubation time, which is variable and depends on the chosen enzyme concentration and can be between 2 and 240 minutes, in this case incubation at 30° C. for 60 min, the extinction is measured again. The increase in the extinction in the yellow region, in this case at 481 nm, is a measure of the enzyme activity.
Isolated rat fat cells are obtained from epididymal fatty tissue from untreated male rats (Wistar, 220-250 g) by collagenase treatment according to published processes. The fat cells from 10 rats are washed three times by flotation with 50 ml each of homogenization buffer ([…], pH 7.4, 0.25 M sucrose, 1 mM ethylenediamine-N,N,N′,N′-tetraacetic acid (EDTA), 1 mM dithiothreitol (DTT), 10 μg/ml of leupeptin, 10 μg/ml of antipain, 20 μg/ml of pepstatin) and finally taken up in 10 ml of homogenization buffer. The fat cells are homogenized in a Teflon-in-glass homogenizer (Braun-Melsungen) by 10 strokes at 1500 rpm and 15° C. The homogenizate is centrifuged (Sorvall SM24 tubes, 5000 rpm, 10 min, 4° C.). The […] between the overlying fatty layer and the pellet is removed and the centrifugation is repeated. The […] resulting from this is centrifuged again (Sorvall SM24 tubes, 20,000 rpm, 45 min, 4° C.). […] After incubation for 60 min at 4° C. (shake at intervals of 15 min), the batch is centrifuged (Sorvall SM24 tubes, 3000 rpm, 10 min, 4° C.). The supernatant is brought to pH 5.2 by addition of glacial acetic acid and incubated at 4° C. for 30 min. […] The suspension is dialyzed overnight at 4° C. against 25 mM TRIS/HCl, pH 7.4, 50% glycerol, 1 mM DTT, and 10 μg/ml of leupeptin, pepstatin, and antipain and then applied to a hydroxylapatite column (0.1 g per 1 ml of suspension, equilibrated with 10 mM potassium phosphate, pH 7.0, 30% glycerol, 1 mM DTT). The column is washed with four volumes of equilibration buffer at a flow rate of 20 to 30 ml/h. The HSL is eluted with a volume of equilibration buffer which contains 0.5 M potassium phosphate, then dialyzed (see above) and concentrated 5 to 10 times by ultrafiltration (Amicon Diaflo PM 10 filter) at 4° C. The partially purified HSL can be stored at −70° C. for 4 to 6 weeks.
6 mg of phosphatidylcholine and 6 mg of phosphatidylinositol are dissolved in 1 ml of chloroform each. 10 mg of NAG are dissolved in 1 ml of chloroform. […] The chloroform (225 μl total volume) is completely removed by overblowing with a stream of N2. The dried substrate can be stored at 4° C. for up to three days. For the preparation of the phospholipid vesicles/micelles having intercalated NAG (on the test day), the dried substrate is taken up in 20 ml of assay buffer (25 mM TRIS/HCl, pH 7.4; 150 mM NaCl) and two ultrasonic treatments with an ultrasonic probe (Branson Sonifier type 11, standard microtip): 1st treatment setting 2, 2×1 min, in between in each case 1 min on ice; 2nd treatment setting 4, 2×1 min, in between in each case 1 min on ice. […] Before use as a substrate (within the next 2 h), the solution is additionally incubated on ice for 15 min.
The assay is carried out at 30° C. for 60 min in 1.5 ml Eppendorf vessels or 96-hole plates.

## O=C(CCCCCCCCCCCNc1ccc([N+](=O)[O-])c2nonc12)OCC(O)CO (racemic) [Compound 3]
  IC50: 1520 nM and 2140 nM
